Test results reported in US4605744A, “Imidazole derivatives” (Hoffmann-La Roche Inc., priority 1985, dated 1986).
In brackets after ≈: the same amount, converted by molar mass. Where a name gives a salt, the structure may show the parent alone. Read-outs that look alike come from different tables or passages of the source.

Experiments:
Assay in all cases: In vitro antibacterial activity (MIC)
Format in all cases: cell-based
[1] = tested on: P. mirabilis 90; conditions: Proteus mirabilis, 90, P. mirabilis 90; read-out: MIC
Method in brief: (§1)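 Twofold-style dilution series (128 to 0.008 μg/ml) made in Mueller-Hinton broth, dispensed, then inoculated with 1.5 μl of a 10^-2 overnight-culture dilution. Plates sealed, held overnight at 37° C, inspected with a viewer.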

[2] = tested on: P. vulgaris 100; conditions: Proteus vulgaris
Method in brief: as §1

[3] = tested on: E. cloacae P99; conditions: Enterobacter cloacae, P99, E. cloacae P99
Method in brief: as §1

[4] = tested on: S. marcescens S4; conditions: Serratia marcescens, S4, S. marcescens S4; read-out: MIC
Method in brief: as §1

[5] = tested on: P. vulgaris ATCC 6380; conditions: Proteus vulgaris
Method in brief: as §1

[6] = tested on: S. schottmuelleri; conditions: read-out: MIC
Method in brief: as §1

[7] = tested on: P. aeruginosa 6148B; conditions: Pseudomonas aeruginosa, read-out: MIC
Method in brief: as §1

[8] = tested on: K. pneumoniae 5096; conditions: Klebsiella pneumoniae; K. pneumoniae 5096; read-out: MIC
Method in brief: as §1

[9] = tested on: S. marcescens S2; conditions: Serratia marcescens; S. marcescens S2; read-out: MIC
Method in brief: as §1

[10] = tested on: P. mirabilis 620A; conditions: Proteus mirabilis, 620A, P. mirabilis 620A; read-out: MIC
Method in brief: as §1

[11] = tested on: E. coli 503-455
Method in brief: as §1

[12] = tested on: P. aeruginosa POW 151; conditions: Pseudomonas aeruginosa, POW151
Method in brief: as §1

[13] = tested on: E. coli 4; conditions: Escherichia coli, 4, E. coli 4; read-out: MIC
Method in brief: as §1

[14] = tested on: P. mirabilis 503-1136; conditions: Proteus mirabilis, 5031136, P. mirabilis 503-1136; read-out: MIC
Method in brief: as §1

[15] = tested on: S. marcescens S1; conditions: Serratia marcescens
Method in brief: as §1

[16] = tested on: C. freundii CDC6; conditions: Citrobacter freundii
Method in brief: as §1

[17] = tested on: P. vulgaris 101; conditions: Proteus vulgaris, 101, P. vulgaris 101; read-out: MIC
Method in brief: as §1

[18] = tested on: S. pneumoniae 6302; conditions: Streptococcus pneumoniae, 6302, S. pneumoniae 6302; read-out: MIC
Method in brief: as §1

[19] = tested on: S. pneumoniae 6301; conditions: Streptococcus pneumoniae, 6301, S. pneumoniae 6301; read-out: MIC
Method in brief: as §1

[20] = tested on: S. pyogenes 503-782; conditions: Streptococcus pyogenes, 503782; S. pyogenes 503-782; read-out: MIC
Method in brief: as §1

[21] = tested on: S. marcescens S5; conditions: Serratia marcescens, S5, S. marcescens S5; read-out: MIC
Method in brief: as §1

[22] = tested on: S. aureus 1059B; conditions: Staphylococcus aureus, read-out: MIC
Method in brief: as §1

[23] = tested on: C. freundii 8ASM; conditions: Citrobacter freundii, 8ASM, C. freundii 8ASM; read-out: MIC
Method in brief: as §1

[24] = tested on: P. aeruginosa 5712; conditions: Pseudomonas aeruginosa; P. aeruginosa 5712; read-out: MIC
Method in brief: as §1

[25] = tested on: P. aeruginosa 8780; conditions: Pseudomonas aeruginosa; P. aeruginosa 8780; read-out: MIC
Method in brief: as §1

[26] = tested on: E. aerogenes 503-478; conditions: Klebsiella aerogenes, 503478, E. aerogenes 503-478; read-out: MIC
Method in brief: as §1

[27] = tested on: S. aureus Smith; conditions: Staphylococcus aureus, S. aureus Smith; read-out: MIC
Method in brief: as §1

[28] = tested on: K. pneumoniae 503-994; conditions: Klebsiella pneumoniae, 503994, K. pneumoniae 503-994; read-out: MIC
Method in brief: as §1

[29] = tested on: E. cloacae 6951; conditions: Enterobacter cloacae, 6951, E. cloacae 6951; read-out: MIC
Method in brief: as §1

[30] = tested on: K. pneumoniae A; conditions: Klebsiella pneumoniae, K. pneumoniae A; read-out: MIC
Method in brief: as §1

[31] = tested on: S. pneumoniae SC; conditions: Streptococcus pneumoniae, read-out: MIC
Method in brief: as §1

[32] = tested on: E. coli R-563; conditions: Escherichia coli
Method in brief: as §1

[33] = tested on: C. diversus CDC 1663-72; conditions: Citrobacter koseri, CDC166372
Method in brief: as §1

[34] = tested on: E. cloacae 24; conditions: Enterobacter cloacae, 24, E. cloacae 24; read-out: MIC
Method in brief: as §1

[35] = tested on: E. coli 5152
Method in brief: as §1

[36] = tested on: E. cloacae 5699; conditions: Enterobacter cloacae, 5699, E. cloacae 5699; read-out: MIC
Method in brief: as §1

[37] = tested on: K. pneumoniae 4964
Method in brief: as §1

[38] = tested on: E. aerogenes 8; conditions: Klebsiella aerogenes; E. aerogenes 8; read-out: MIC
Method in brief: as §1

[39] = tested on: P. aeruginosa 503-56; conditions: Pseudomonas aeruginosa, 50356, P. aeruginosa 503-56
Method in brief: as §1

[40] = tested on: P. aeruginosa 503-820; conditions: Pseudomonas aeruginosa, 503820; P. aeruginosa 503-820; read-out: MIC
Method in brief: as §1

[41] = tested on: E. coli 48; conditions: Escherichia coli, 48, E. coli 48; read-out: MIC
Method in brief: as §1

[42] = tested on: E. cloacae 214
Method in brief: as §1

[43] = tested on: P. mirabilis 2; conditions: Proteus mirabilis, 2, P. mirabilis 2; read-out: MIC
Method in brief: as §1

[44] = tested on: E. cloacae 9570A; conditions: Enterobacter cloacae, read-out: MIC
Method in brief: as §1

CC1(C)S[C@@H]2[C@H](N=CN3CCC(CCC4=NCCN4)CC3)C(=O)N2[C@H]1C(=O)O [N, [2S-(2alpha,5alpha,6beta)]-6-[[[4-[4,5-dihydro-1H-imidazol-2-yl)ethyl]-1-piperidinyl]methylene]amino]-3,3-dimethyl-7-oxo-4-thia-1-azabicyclo[3.2.0]heptane-2-carboxylic acid hydrochloride]
MIC [1]: 0.125 µg/mL | MIC [2]; 100: 0.5 µg/mL | MIC [3]: 0.016 µg/mL | MIC [4]: 0.25 µg/mL | MIC ([5]; ATCC6380, P. vulgaris ATCC 6380, read-out: MIC): 0.031 µg/mL | MIC [6]: 0.031 µg/mL | MIC [7]: 32 µg/mL | MIC [8]: > 128 µg/mL | MIC [9]: 0.062 µg/mL | MIC [10]: 128 µg/mL | MIC ([11]; Escherichia coli, 503455): 1 µg/mL | MIC [12]: > 128 µg/mL | MIC [13]: 0.016 µg/mL | MIC [14]: 4 µg/mL | MIC ([15]; S1): 2 µg/mL | MIC ([16]; CDC6, C. freundii CDC6, read-out: MIC): 0.031 µg/mL | MIC [17]: 64 µg/mL | MIC [18]: 2 µg/mL | MIC [19]: 1 µg/mL | MIC [20]: 64 µg/mL | MIC [21]: 0.25 µg/mL | MIC [22]: 64 µg/mL | MIC [23]: 0.031 µg/mL | MIC [24]: 64 µg/mL | MIC [25]: 128 µg/mL | MIC [26]: 4 µg/mL | MIC [27]: 8 µg/mL | MIC [28]: 0.062 µg/mL | MIC [29]: 8 µg/mL | MIC [30]: 0.016 µg/mL | MIC [31]: 1 µg/mL | MIC ([32]; R563, E. coli R-563, read-out: MIC): 0.031 µg/mL | MIC ([33]; C. diversus CDC 1663-72, read-out: MIC): 0.031 µg/mL | MIC [34]: 0.125 µg/mL | MIC ([35]; Escherichia coli, 5152): 8 µg/mL | MIC [36]: 0.062 µg/mL | MIC ([37]; Klebsiella pneumoniae, 4964): 32 µg/mL | MIC [38]: 32 µg/mL | MIC [39]: 16 µg/mL | MIC [40]: 16 µg/mL | MIC [41]: 0.031 µg/mL | MIC ([42]; Enterobacter cloacae, 214, E. cloacae 214, read-out: MIC): 0.062 µg/mL | MIC [43]: 0.125 µg/mL | MIC [44]: 0.062 µg/mL

CC1(C)S[C@@H]2[C@H](N=CN3CCC(Cn4ccnc4)CC3)C(=O)N2[C@H]1C(=O)O [Compound A]
MIC [1]: 1 µg/mL (≈ 2.55 µM) | MIC ([2]; P. vulgaris 100, read-out: MIC): 8 µg/mL (≈ 20.4 µM) | MIC [3]: 0.25 µg/mL (≈ 0.639 µM) | MIC [4]: 1 µg/mL (≈ 2.55 µM) | MIC ([5]; ATCC6380): 0.125 µg/mL (≈ 0.319 µM) | MIC [6]: 0.125 µg/mL (≈ 0.319 µM) | MIC [7]: > 128 µg/mL | MIC [8]: 64 µg/mL (≈ 163 µM) | MIC [9]: 0.25 µg/mL (≈ 0.639 µM) | MIC [10]: 16 µg/mL (≈ 40.9 µM) | MIC ([11]; Escherichia coli, 503455, E. coli 503-455, read-out: MIC): 2 µg/mL (≈ 5.11 µM) | MIC [12]: > 128 µg/mL | MIC [13]: 0.062 µg/mL (≈ 0.158 µM) | MIC [14]: 8 µg/mL (≈ 20.4 µM) | MIC ([15]; S1, S. marcescens S1, read-out: MIC): 0.25 µg/mL (≈ 0.639 µM) | MIC ([16]; CDC6): 0.125 µg/mL (≈ 0.319 µM) | MIC [17]: 16 µg/mL (≈ 40.9 µM) | MIC [18]: 2 µg/mL (≈ 5.11 µM) | MIC [19]: 1 µg/mL (≈ 2.55 µM) | MIC [20]: 128 µg/mL (≈ 327 µM) | MIC [21]: 2 µg/mL (≈ 5.11 µM) | MIC [22]: 32 µg/mL (≈ 81.7 µM) | MIC [23]: 0.062 µg/mL (≈ 0.158 µM) | MIC [24]: > 128 µg/mL | MIC [25]: > 128 µg/mL | MIC [26]: 0.062 µg/mL (≈ 0.158 µM) | MIC [27]: 8 µg/mL (≈ 20.4 µM) | MIC [28]: 0.25 µg/mL (≈ 0.639 µM) | MIC [29]: 4 µg/mL (≈ 10.2 µM) | MIC [30]: < 0.008 µg/mL | MIC [31]: 2 µg/mL (≈ 5.11 µM) | MIC ([32]; R563): 0.125 µg/mL (≈ 0.319 µM) | MIC [33]: 0.125 µg/mL (≈ 0.319 µM) | MIC [34]: 0.5 µg/mL (≈ 1.28 µM) | MIC ([35]; Escherichia coli, 5152, E. coli 5152, read-out: MIC): 16 µg/mL (≈ 40.9 µM) | MIC [36]: 0.5 µg/mL (≈ 1.28 µM) | MIC ([37]; Klebsiella pneumoniae, 4964, K. pneumoniae 4964, read-out: MIC): 2 µg/mL (≈ 5.11 µM) | MIC [38]: 32 µg/mL (≈ 81.7 µM) | MIC ([39]; read-out: MIC): > 128 µg/mL | MIC [40]: > 128 µg/mL | MIC [41]: 0.062 µg/mL (≈ 0.158 µM) | MIC ([42]; Enterobacter cloacae, 214): 0.125 µg/mL (≈ 0.319 µM) | MIC [43]: 0.5 µg/mL (≈ 1.28 µM) | MIC [44]: 0.5 µg/mL (≈ 1.28 µM)
